Earlier results in patent publication US20130317108A1, “DERMATOLOGICAL FOAMS OBTAINED FROM A GEL OR SUSPENSION CONTAINING A COMBINATION OF ADAPALENE AND BENZOYL PEROXIDE” (GALDERMA RESEARCH & DEVELOPMENT, priority 2010, published 2013).
Like-named read-outs stand apart in the source and are kept apart here.

Assays:
[1] = in presence of benzoyl peroxide formulation
[2] = in suspension (dispersed form) in water and propylene glycol, 90 days of storage
[3] = 40° C.

| retinoid degraded ([1]; within 24 hours) | retinoid degraded ([1]; within 2 hours) [%] | SMILES | degradation on storage [2] | degradation time (half-life time) ([3]; in PEG 400 (0.5 mg/g)) [days] | degradation time (half-life time) ([3]; in ethanol) [days] | degradation time (half-life time) ([3]; in propylene glycol) [days] |
| --- | --- | --- | --- | --- | --- | --- |
| no degradation |  | COc1ccc(-c2ccc3cc(C(=O)O)ccc3c2)cc1C12CC3CC(CC(C3)C1)C2 [adapalene, 6-[3-(1-Adamantyl)-4-methoxyphenyl]-2-naphthoic acid] |  |  |  |  |
|  |  | O=C(OOC(=O)c1ccccc1)c1ccccc1 [benzoyl peroxide] | not degraded | 1.4 | 29 | 53 |
| 95% | 50 | CC1=C(/C=C/C(C)=C/C=C/C(C)=C/C(=O)O)C(C)(C)CCC1 [tretinoin] |  |  |  |  |
